In ChEMBL document CHEMBL4699500, “Synthesis of metronidazole based thiazolidinone analogs as promising antiamoebic agents” (Bioorg Med Chem Lett, 2020):

How the values were obtained:
[1] = tested on: Entamoeba histolytica; experiment: Antimicrobial activity against Entamoeba histolytica HM1:MMS assessed as reduction in amoeba growth incubated for 72 hrs by microscopy analysis; format: functional, organism-based
[2] = tested on: HEK293; experiment: Cytotoxicity against human HEK293 cells assessed as reduction in cell viability at 2.5 to 50 uM incubated for 48 hrs by MTT assay; format: cell-based; details: hek293, 48 h, dose 2.5-50 µM
[3] = tested on: HEK293; experiment: Cytotoxicity against human HEK293 cells assessed as reduction in cell viability at 100 uM incubated for 48 hrs by MTT assay; format: cell-based; details: hek293, 48 h

Compound | IC50 [1] | Activity [2] | Activity [3]
Cc1ncc([N+](=O)[O-])n1CCOc1ccc(/C=C2\S/C(=N\c3ccccc3)N(Cc3ccccc3Cl)C2=O)cc1 | 2.32 µM |  | 
Cc1ncc([N+](=O)[O-])n1CCOc1ccc(/C=C2\S/C(=N\c3ccccc3)N(Cc3ccncc3)C2=O)cc1 | 0.37 µM | Non-Toxic | Non-Toxic
Cc1ncc([N+](=O)[O-])n1CCOc1ccc(/C=C2\S/C(=N\c3ccccc3)N(CC3CCCO3)C2=O)cc1 (stereo not drawn) | 3.1 µM |  | 
Cc1ncc([N+](=O)[O-])n1CCOc1ccc(/C=C2\S/C(=N\c3ccccc3)N(Cc3ccco3)C2=O)cc1 | 0.64 µM | Non-Toxic | 
COc1ccc(CN2C(=O)/C(=C/c3ccc(OCCn4c([N+](=O)[O-])cnc4C)cc3)S/C2=N\c2ccccc2)cc1OC | 1.05 µM | Non-Toxic | 
CCCN1C(=O)/C(=C/c2ccc(OCCn3c([N+](=O)[O-])cnc3C)cc2)S/C1=N\c1ccccc1 | 3.62 µM |  | 
Cc1ncc([N+](=O)[O-])n1CCOc1ccc(/C=C2\S/C(=N\c3ccccc3)N(Cc3ccc(Cl)cc3Cl)C2=O)cc1 | 2.19 µM |  | 
Cc1ncc([N+](=O)[O-])n1CCOc1ccc(/C=C2\S/C(=N\c3ccccc3)N(CCO)C2=O)cc1 | 0.18 µM | Non-Toxic | 
Cc1ncc([N+](=O)[O-])n1CCOc1ccc(/C=C2\S/C(=N\c3ccccc3)N(CC(C)C)C2=O)cc1 | 3.95 µM |  | 
Cc1ncc([N+](=O)[O-])n1CCOc1ccc(/C=C2\S/C(=N\c3ccccc3)N(Cc3ccc(F)cc3)C2=O)cc1 | 2.84 µM |  | 
CCCCN1C(=O)/C(=C/c2ccc(OCCn3c([N+](=O)[O-])cnc3C)cc2)S/C1=N\c1ccccc1 | 4.97 µM |  | 
Cc1ncc([N+](=O)[O-])n1CCOc1ccc(/C=C2\S/C(=N\c3ccccc3)N(Cc3ccccc3)C2=O)cc1 | 1.65 µM | Non-Toxic | Non-Toxic
Cc1ncc([N+](=O)[O-])n1CCOc1ccc(/C=C2\S/C(=N\c3ccccc3)N(Cc3cccs3)C2=O)cc1 | 1.63 µM | Non-Toxic | Non-Toxic
Cc1ncc([N+](=O)[O-])n1CCO [METRONIDAZOLE] |  | Non-Toxic | 
